Starred links: 1 amine or outer side, 2 acyl side, 3 side chain; linkers in the order of their positions; H or OH if unused. Positions of bridges follow the written chain, without caps; N, C: chain ends. Non-standard residues stand in square brackets, D forms with d. Residues, ends and D or L forms follow the SMILES beside them. dAbu(3S-yl) = C[C@@H]([C@@H](N[*:1])C(=O)[*:2])[*:3]; Dhb = C/C=C(\N)C(=O)O
Columns and labels:
[1] = system: S. salivarius strain YU10; assay: Salivaricin induction assay, strain YU10; type: cell-based, Streptococcus salivarius; settings: 0.05 ml test sample (titre 4 AU/ml) added to washed cells in M17YESUCa, 18 h anaerobic; well diffusion assay, induced vs control tube
Text: (§1) The bacteriocin-inducing activities present in crude extracts of S. salivarius strains NU10, YU10, K12 and in FPLC-purified salivaricin 9 peptide fractions having anti-Micrococcus luteus activity was investigated in this study. The crude extracts of producer cells designated as BLIS-NU10, BLIS-YU10 and BLIS-K12 were isolated by acidic methanol extraction of the producer cells as described previously. These crude BLIS extracts had the potential to contain at least two lantibiotics on the basis of PCR assessment for their content of lantibiotic structural genes. Strains NU10 and YU10 had the structural genes for salivaricin 9 and salivaricin A and strain K12 had salivaricin A and salivaricin B structural genes. […] Colonies from an 18 h culture of each S. salivarius strain NU10, YU10 and K12 grown anaerobically on BACa agar was used to inoculate 10 ml of M17YESUCa broth and incubated again under the same conditions. The cells were then collected by centrifugation at 18000 x g for 5 min and washed three times in saline buffer to reduce the levels of cell surface-associated lantibiotic before suspending in 10 ml of the same buffer. […] Induction of salivaricin 9 or salivaricin A production was recorded as inhibitory zones surrounding samples from the induced tubes but not the control tubes. […]

[2] = system: S. salivarius strain NU10; assay: Salivaricin induction assay, strain NU10; type: cell-based, Streptococcus salivarius; settings: 0.05 ml test sample (titre 4 AU/ml) added to washed cells in M17YESUCa, 18 h anaerobic; well diffusion assay, induced vs control tube
Text: as §1

[3] = system: Micrococcus luteus ATCC10240; assay: Flow cytometry analysis of membrane disruption (propidium iodide); type: cell-based; settings: PI 25 µM, 30 minutes at 37°C
Protocol: For membrane integrity assay using the dye propidium iodide (PI), cultures of Micrococcus luteus ATCC10240 were grown over night at 37°C in THB supplemented with 0.5% glucose (THBG) and then diluted with fresh THBG to an OD600 of 0.1. The cells were centrifuged at 4000 x g for 5 minutes at 4°C and washed twice with washing buffer (2 mM HEPES + 2 mM glucose) before re-suspending in the same buffer and adjusting to OD600 0.1. The cells were exposed to salivaricin 9 (12, 20 µg/ml) or nisin (20 µg/ml) (Sigma) and PI (final concentration 25 µM) before incubating for 30 minutes at 37°C. Nuclease-Free Water (Promega, USA) was added instead of antibiotic and served as a negative control. Samples were analyzed using BD FACSCanto^TM II flow cytometer using excitation at 488 nm and with the standard filter setup. Each sample was examined in triplicate and the geometric mean fluorescence intensity (MFI) of gated cell populations was calculated (Figure 9).

[4] = system: Lactococcus lactis strain ATCC11454; assay: Induction assay, nisin-producing strain ATCC11454; type: cell-based; settings: 0.05 ml test sample, 18 h, well diffusion assay
S. salivarius strain K12 = assay: Salivaricin induction assay, strain K12; type: cell-based, Streptococcus salivarius; settings: 0.05 ml test sample (titre 4 AU/ml) added to washed cells in M17YESUCa, 18 h anaerobic; well diffusion assay, induced vs control tube
Text: as §1

Micrococcus luteus [5] = assay: pH stability (residual inhibitory activity); type: physicochemical; settings: for Inhibition zone after pH exposure: indicator Micrococcus luteus, titre 800 AU/ml
Protocol: (§3) Heat stability was studied by exposing pure salivaricin 9 to different temperatures for one hour after which the sample was centrifuged and the supernatant tested for inhibitory activity. The stability of the peptide at different pH values was also evaluated and tested for inhibitory activity. Specific enzymatic effects of denaturation on salivaricin 9 were tested using two wells of 6mm diameter each separated by a distance of 4 mm in CAB plates. One well was filled with 50µl of pure salivaricin 9 while the other was filled with 50µl of the tested enzyme. The plate was incubated at 50°C for 2 hours and then incubated at 37°C overnight before seeding the indicator strain onto the agar surface using a cotton swab. Then the plate was re-incubated at 37°C for 18 hours and the zones of inhibitions that appeared indicated residual activity of salivaricin 9 while absence of inhibition zones indicated the denaturation of the antimicrobial peptide by the applied enzymes namely proteinase K, peptidase, lyticase and catalase. The stability of salivaricin 9 to treatment with the chemicals EDTA, SDS, urea, NaCl and β-mercaptoethanol was examined by adding 1% of these chemicals to the bacteriocin followed by incubation for two hours at RT before the samples were centrifuged and the supernatant tested as mentioned above. If the chemical was a solvent such as β-mercaptoethanol, then the solvent was evaporated before testing for antimicrobial activity (Table 4).

Lyticase = assay: Enzyme stability (residual inhibitory activity)
Protocol: (§4) Specific enzymatic effects of denaturation on salivaricin 9 were tested using two wells of 6mm diameter each separated by a distance of 4 mm in CAB plates. One well was filled with 50µl of pure salivaricin 9 while the other was filled with 50µl of the tested enzyme. The plate was incubated at 50°C for 2 hours and then incubated at 37°C overnight before seeding the indicator strain onto the agar surface using a cotton swab. Then the plate was re-incubated at 37°C for 18 hours and the zones of inhibitions that appeared indicated residual activity of salivaricin 9 while absence of inhibition zones indicated the denaturation of the antimicrobial peptide by the applied enzymes namely proteinase K, peptidase, lyticase and catalase.

Micrococcus luteus [6] = assay: Stability to detergents / chemicals (residual inhibitory activity); type: physicochemical; settings: two hours at RT, indicator Micrococcus luteus, titre 800 AU/ml
Protocol: as §3

[7] = system: Staphylococcus aureus RF122; assay: Minimal inhibitory concentration (NCCLS); type: cell-based; parameters: key: ++++: inhibition zone >12 mm; +++: inhibition zone = 10 mm; ++: inhibition zone < 5 mm; -: No inhibition; settings: pure salivaricin 9, NCCLS method
Protocol: (§2) An induced culture of S. salivarius NU10 was centrifuged at 8000 x g to pellet the cells. The cell free supernatant (CFS) was filtered through 0.2 µm sterilized cellulose membrane (Millipore) to ensure that all cell debris was removed. The filtered crude bacteriocin preparation was passed through 100 ml XAD-16 particles (Sigma) packed in a glass column. The column was washed with 400 ml of distilled water followed by 200 ml of 70% methanol before the active fraction was eluted using 200 ml of 95% methanol (adjusted to pH 2) at a flow rate of 15 ml/min. The methanol was removed using a rotary evaporator and the resulting peptide preparation was lyophilized and stored at -20°C. The lyophilized peptide pellets were dissolved in 20 mM sodium phosphate pH 5.8 (binding buffer). Then the sample was injected into a fast protein liquid chromatography (FPLC) system (ÄKTA Purifier™) using HiTrap SP FF 5ml strong cation exchanger column (GE Healthcare) equilibrated with the same buffer at a flow rate of 1 ml/min. Then the column was washed with 10X column volume of the binding buffer before salivaricin 9 was eluted using a linear gradient of 0 to 1M NaCl in 20 mM sodium phosphate buffer at pH 5.8 (Figure 4). All fractions were tested for inhibitory activity using Micrococcus luteus as the indicator. MIC values of pure salivaricin 9 against a set of bacterial indicator strains were determined by following the National Committee for Clinical Laboratory Standards (NCCLS) (Table 3).

[8] = system: Streptococcus mutans GEJ11; assay: Minimal inhibitory concentration (NCCLS); type: cell-based; parameters: key: ++++: inhibition zone >12 mm; +++: inhibition zone = 10 mm; ++: inhibition zone < 5 mm; -: No inhibition; settings: pure salivaricin 9, NCCLS method
Protocol: as §2

[9] = system: Haemophilus parainfluenza TONEJ11; assay: Minimal inhibitory concentration (NCCLS); type: cell-based; parameters: key: ++++: inhibition zone >12 mm; +++: inhibition zone = 10 mm; ++: inhibition zone < 5 mm; -: No inhibition; settings: pure salivaricin 9, NCCLS method
Protocol: as §2

[10] = system: Actinomyces naeslundii TG2; assay: Minimal inhibitory concentration (NCCLS); type: cell-based; parameters: key: ++++: inhibition zone >12 mm; +++: inhibition zone = 10 mm; ++: inhibition zone < 5 mm; -: No inhibition; settings: pure salivaricin 9, NCCLS method
Protocol: as §2

[11] = system: Bacillus cereus ATCC14579; assay: Minimal inhibitory concentration (NCCLS); type: cell-based; parameters: key: ++++: inhibition zone >12 mm; +++: inhibition zone = 10 mm; ++: inhibition zone < 5 mm; -: No inhibition; settings: pure salivaricin 9, NCCLS method
Protocol: as §2

Micrococcus luteus [12] = assay: Mode of action, addition to growing culture (OD600); type: cell-based; settings: added to different growth phases of Micrococcus luteus culture
Protocol: When added to different growth phases of Micrococcus luteus culture, salivaricin 9 induced cell lysis.
Figure 7 Bactericidal mode of action of salivaricin 9. Salivaricin 9 was added to different phases of bacterial growth. […] The sensitive bacteria Micrococcus luteus lost the ability to grow again after salivaricin 9 was added.

Proteinase = assay: Enzyme stability (residual inhibitory activity); type: physicochemical; settings: Proteinase 1 mg.ml^-1; adjacent wells, 50 µl each; 50°C 2 hours then 37°C overnight; indicator Micrococcus luteus; titre 800 AU/ml
Protocol: as §4

[13] = system: Streptococcus pyogenes ATCC12344; assay: Minimal inhibitory concentration (NCCLS); type: cell-based; settings: pure salivaricin 9, NCCLS method
Protocol: as §2, with “All fractions were tested for inhibitory activity using Micrococcus luteus as the indicator.” left out

Proteinase K = Proteinase K (Parengyodontium album, UniProt P06873); assay: Enzyme stability (residual inhibitory activity)
Protocol: (§5) Heat stability was studied by exposing pure salivaricin 9 to different temperatures for one hour after which the sample was centrifuged and the supernatant tested for inhibitory activity. The stability of the peptide at different pH values was also evaluated and tested for inhibitory activity. Specific enzymatic effects of denaturation on salivaricin 9 were tested using two wells of 6mm diameter each separated by a distance of 4 mm in CAB plates. One well was filled with 50µl of pure salivaricin 9 while the other was filled with 50µl of the tested enzyme. The plate was incubated at 50°C for 2 hours and then incubated at 37°C overnight before seeding the indicator strain onto the agar surface using a cotton swab. Then the plate was re-incubated at 37°C for 18 hours and the zones of inhibitions that appeared indicated residual activity of salivaricin 9 while absence of inhibition zones indicated the denaturation of the antimicrobial peptide by the applied enzymes namely proteinase K, peptidase, lyticase and catalase. The stability of salivaricin 9 to treatment with the chemicals EDTA, SDS, urea, NaCl and β-mercaptoethanol was examined by adding 1% of these chemicals to the bacteriocin followed by incubation for two hours at RT before the samples were centrifuged and the supernatant tested as mentioned above. […]

Micrococcus luteus [14] = assay: Heat stability (residual inhibitory activity); type: physicochemical; settings: for Inhibition zone after heat treatment: indicator Micrococcus luteus, titre 800 AU/ml
Protocol: as §3

Catalase = assay: Enzyme stability (residual inhibitory activity)
Protocol: as §4

Sequence of Proteinase K (P06873 106-384): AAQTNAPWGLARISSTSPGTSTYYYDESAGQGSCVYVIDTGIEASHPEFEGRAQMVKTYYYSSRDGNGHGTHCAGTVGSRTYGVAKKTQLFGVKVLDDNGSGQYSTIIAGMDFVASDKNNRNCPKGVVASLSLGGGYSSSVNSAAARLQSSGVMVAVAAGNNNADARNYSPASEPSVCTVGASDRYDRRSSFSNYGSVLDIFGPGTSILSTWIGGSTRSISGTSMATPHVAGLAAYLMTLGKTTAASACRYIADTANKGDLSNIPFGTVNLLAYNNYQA
Protocol for Peptidase: as §5

Nisin: pore forming lantibiotic (Sigma), produced by Lactococcus lactis (ITSISLCTPGCKTGALMGCNMKTATCHCSIHVSK; not fully specified; Lantibiotic nisin-A; UniProt P13068 24-57, looked up) [reference compound]
Preparation induces inhibitor production in YU10 [1]: No | Preparation induces inhibitor production in NU10 [2]: No | Propidium iodide uptake, geometric mean fluorescence intensity (MFI) ([3]; 20 µg/ml, triplicate): large increase | Preparation induces inhibitor production in ATCC11454 [4]: Yes | Preparation induces inhibitor production in K12 (S. salivarius strain K12): No

C/C=C1\NC(=O)[C@H](Cc2c[nH]c3ccccc23)NC(=O)[C@@H]2NC(=O)[C@H](C)NC(=O)[C@H](CC(C)C)NC(=O)[C@H](CC(N)=O)NC(=O)[C@@H]3CS[C@@H](C)[C@@H](NC(=O)[C@H](CC(C)C)NC(=O)[C@@H](NC(=O)[C@@H](NC(=O)CNC(=O)[C@H](CC(N)=O)NC(=O)CN)C(C)C)C(C)C)C(=O)N[C@@H](CC(C)C)C(=O)N[C@@H](C(=O)N[C@@H](Cc4c[nH]cn4)C(=O)N[C@@H](CCC(=O)O)C(=O)N3)[C@H](C)SC[C@H](NC(=O)[C@H](CCCCN)NC(=O)[C@H](CC(C)C)NC(=O)[C@H](CCCCN)NC(=O)[C@H](CCCCN)NC1=O)C(=O)N[C@H](C(=O)O)CS[C@H]2C [Salivaricin 9] (H-GNGVVL[dAbu(3S-yl)]L[dAbu(3S-yl)]HECNLA[dAbu(3S-yl)]W[Dhb]KKLKCC-OH; thioether 7-12, 9-23, 16-24; N-terminus and C-terminus assumed)
Inhibition zone after pH exposure (Micrococcus luteus [5]; pH 2- 7): ++++ (inhibition zone >20 mm) | Inhibition zone after pH exposure (Micrococcus luteus [5]; pH 8-10): +++ (inhibition zone =20 mm) | Inhibition zone after pH exposure (Micrococcus luteus [5]; pH 11-12): - | Antimicrobial activity after pH exposure (in words) (Micrococcus luteus [5]; pH range of 2 to 10): retained | Preparation induces inhibitor production in YU10 [1]: Yes | Preparation induces inhibitor production in NU10 [2]: Yes | Inhibition zone after enzyme treatment (Lyticase; Lyticase 1 mg.ml^-1, adjacent wells, 50 µl each, 50°C 2 hours then 37°C overnight, indicator Micrococcus luteus, titre 800 AU/ml): ++++ (inhibition zone >20 mm) | Antimicrobial activity after enzyme treatment (in words) (Lyticase; treated with lyticase): remained active | Inhibition zone after detergent / chemical treatment (Micrococcus luteus [6]; EDTA 1% (w/v)): ++++ (inhibition zone >20 mm) | Inhibition zone after detergent / chemical treatment (Micrococcus luteus [6]; NaCl 1% (w/v)): ++++ (inhibition zone >20 mm) | Inhibition zone after detergent / chemical treatment (Micrococcus luteus [6]; SDS 1% (w/v)): ++++ (inhibition zone >20 mm) | Inhibition zone after detergent / chemical treatment (Micrococcus luteus [6]; Tritone X100 1% (w/v)): ++ (inhibition zone < 20 mm) | Inhibition zone after detergent / chemical treatment (Micrococcus luteus [6]; Tween 20 1% (w/v)): ++++ (inhibition zone >20 mm) | Inhibition zone after detergent / chemical treatment (Micrococcus luteus [6]; Tween 80 1% (w/v)): ++++ (inhibition zone >20 mm) | Inhibition zone after detergent / chemical treatment (Micrococcus luteus [6]; Urea 1% (w/v)): ++++ (inhibition zone >20 mm) | Propidium iodide uptake, geometric mean fluorescence intensity (MFI) ([3]; 4 µg/ml (MIC)): did not show significant increase in the MFI | Propidium iodide uptake, geometric mean fluorescence intensity (MFI) ([3]; 12 µg/ml (3-fold MIC), triplicate): significant MFI increments | Propidium iodide uptake, geometric mean fluorescence intensity (MFI) ([3]; 20 µg/ml, triplicate): significant MFI increments | Preparation induces inhibitor production in ATCC11454 [4]: No | MIC of salivaricin 9 [7]: - | MIC of salivaricin 9 [8]: - | MIC of salivaricin 9 [9]: - | MIC of salivaricin 9 [10]: - | MIC of salivaricin 9 [11]: - | Mode of action (OD600 after addition to culture) (Micrococcus luteus [12]): bactericidal and bacteriolytic | Preparation induces inhibitor production in K12 (S. salivarius strain K12): No | Inhibition zone after enzyme treatment (Proteinase): - | MIC of salivaricin 9 [13]: 32 µg/mL | Inhibition zone after enzyme treatment (Proteinase K; Proteinase K 1 mg.ml^-1, adjacent wells, 50 µl each, 50°C 2 hours then 37°C overnight, indicator Micrococcus luteus, titre 800 AU/ml): - | Antimicrobial activity after enzyme treatment (in words) (Proteinase K; treated with proteinase K): lost all antimicrobial activity | Inhibition zone after enzyme treatment (Peptidase; Peptidase 1 mg.ml^-1, adjacent wells, 50 µl each, 50°C 2 hours then 37°C overnight, indicator Micrococcus luteus, titre 800 AU/ml): - | Antimicrobial activity after enzyme treatment (in words) (Peptidase; treated with peptidase): lost all antimicrobial activity | Inhibition zone after heat treatment (Micrococcus luteus [14]; 4, 20, 30, 37, 40, 50, 60, 70, 80 °C for 1 hour): ++++ (inhibition zone >20 mm) | Inhibition zone after heat treatment (Micrococcus luteus [14]; 90, 100 °C for 30 min): +++ (inhibition zone =20 mm) | Biological stability at high temperature (in words) (Micrococcus luteus [14]; 90-100°C for 30 minutes): retained biological stability | Inhibition zone after heat treatment (Micrococcus luteus [14]; 121 °C for 20 min): - | Inhibition zone after enzyme treatment (Catalase; Catalase 1 mg.ml^-1, adjacent wells, 50 µl each, 50°C 2 hours then 37°C overnight, indicator Micrococcus luteus, titre 800 AU/ml): ++++ (inhibition zone >20 mm) | Antimicrobial activity after enzyme treatment (in words) (Catalase; treated with catalase): remained active

— publication PMC3797685, “Enhanced Production, Purification, Characterization and Mechanism of Action of Salivaricin 9 Lantibiotic Produced by Streptococcus salivarius NU10” (PLoS ONE, 2013)
